{
  "source": "patent US7776873B2",
  "about": "“Method for treating damage to gastric mucosa” (Yuhan Corporation, priority 2005, dated 2010)",
  "key": {"[1]": {"system": "human gastric epithelial (AGS) cells infected with H. pylori (ATCC 43504)", "experiment": "Incidence of H. pylori-induced cell death (MTT assay-1)", "format": "cell-based", "conditions": "50 uM pretreatment for 16 hours, then 48-hour H. pylori infection, FIG. 1", "method": "In order to determine cytoprotective properties of revaprazan against H. pylori infection, gastric mucosal cells were pretreated with revaprazan and rebamipide prior to H. pylori infection, and the incidence of cell death was measured. Rebamipide, known to have cytoprotective properties, was used as a control drug.\nThe human gastric epithelial (AGS, KCLB 21739) cells were seeded onto 96-well plate at 5×10^4 cells/ml and cultured in RPMI 1640 (Gibco BRL, Grand Island, N.Y., U.S.A.), supplemented with 100 units/mL penicillin, 100 ug/mL streptomycin, and 10% FBS (Fetal Bovine Serum). Revaprazan and rebamipide, dissolved in sterilized water, were added to AGS cells to reach a final concentration of 50 uM and the cells were incubated at 37° C. for 16 hours. To remove RPMI 1640 media, the plate was centrifuged at 24° C., 3000 rpm for 5 minutes and washed three times with PBS (137 mM NaCl, 2.7 mM KCl, 10 mM Na2HPO4, and 2 mM KH2PO4). For inoculation, H. pylori (ATCC 43504) cultures were resuspended in PBS and cocultured with AGS cells at a final concentration of 5×10^8 CFU/ml. After 48 hours of incubation at 37° C., the culture was centrifuged at 24° C., 3000 rpm for 5 minutes to remove the culture medium, i.e., RPMI 1640, and then total viable cell numbers were assessed by MTT (3-[4,5-dimethylthiazol-2-yl]-2,5-diphenyl tetrazolim bromide) assay method. 1 mg/ml of an MTT solution prepared by dissolving MTT (Amresco, Ohio, U.S.A.) in PBS (137 mM NaCl, 2.7 mM KCl, 10 mM Na2HPO4, and 2 mM KH2PO4) was added to each well (50 μl/well), followed by incubation at 37° C. for 4 hours. The supernatant was then removed by centrifugation at 24° C., 3000 rpm for 5 minutes and the formazan grains formed by the viable cells were dissolved in 99.5% dimethyl sulfoxide (DMSO) (Kanto, Tokyo, Japan) (50 μl/well), and the optical intensity was measured at 540 nm using an ELISA reader (TECAN, Maennedorf, Switzerland)."}, "[2]": {"system": "indomethacin-induced gastric mucosal lesions", "experiment": "Preventive effect on NSAID-induced gastropathy", "format": "in vivo, Sprague Dawley male rats", "conditions": "rats, oro-gastric pretreatment (revaprazan 5, 10 mg/kg; rebamipide 30 mg/kg; omeprazole 5 mg/kg) prior to indomethacin 40 mg/kg for 12 hrs, FIG. 8", "method": "Six-week old specific-pathogen-free (SPF) Sprague Dawley male rats (Charles River, Tokyo, Japan) were used for experiments. The rats were fed a sterilized commercial pellet diet (Biogenomics Co., Seoul, Korea), given sterile water ad libitum, and housed in air-conditioned biohazard room with a 12-h light:12-h dark cycle. The rats were food-deprived 24 hours, and then administered with 5, 10 mg/kg revaprazan, 30 mg/kg rebamipide and 5 mg/kg omeprazole suspended in 0.5% CMC (carboxymethylcellulose) via oro-gastric tube prior to exposure to indomethacin (40 mg/kg for 12 hrs). Phosphate-buffered saline was perfused into the gastric lumen of the rats to swell the stomachs. Then, the stomachs were opened by an incision along the greater curvature, and the total area of the gastric mucosal lesions was calculated to obtain the average size of the lesions."}, "[3]": {"system": "rat gastric mucosal (RGM-1) cells", "experiment": "Incidence of ethanol-induced cell death (MTT assay-2)", "format": "cell-based", "conditions": "50 uM pretreatment for 16 hours, then 200 mM ethanol for 16 hours, FIG. 2", "experimental": "The rat gastric mucosal (RGM-1, RIKEN cell bank, Japan) cells were seeded onto 96-well plate at 5×10^4 cells/ml and cultured in DMEM-F12 (Gibco BRL, Grand Island, N.Y., U.S.A.), supplemented with 100 units/mL penicillin, 100 ug/mL streptomycin, and 10% FBS (Fetal Bovine Serum). […] To remove DMEM-F12 media, the plate was centrifuged at 24° C., 3000 rpm for 5 minutes and washed three times with PBS (137 mM NaCl, 2.7 mM KCl, 10 mM Na2HPO4, and 2 mM KH2PO4). Then, ethanol-containing media (200 mM ethanol-containing DMEM-F12, supplemented with 100 units/mL penicillin, 100 ug/mL streptomycin, and 10% FBS) was added to the cells, and the cells were cultured at 37° C. for 16 hours. After the incubation, the culture was centrifuged at 24° C., 3000 rpm for 5 minutes to remove the culture medium and then total viable cell numbers were assessed by MTT (3-[4,5-dimethylthiazol-2-yl]-2,5-diphenyl tetrazolim bromide) assay method. 1 mg/ml of an MTT solution prepared by dissolving MTT (Amresco, Ohio, U.S.A.) in PBS (137 mM NaCl, 2.7 mM KCl, 10 mM Na2HPO4, and 2 mM KH2PO4) was added to each well (50 μl/well), followed by incubation at 37° C. for 4 hours. The supernatant was then removed by centrifugation at 24° C., 3000 rpm for 5 minutes and the formazan grains formed by the viable cells were dissolved in 99.5% dimethylsulfoxide (DMSO) (Kanto, Tokyo, Japan) (50 μl/well), and the optical intensity was measured at 540 nm using an ELISA reader (TECAN, Maennedorf, Switzerland)."}},
  "data": [
    {"smiles": "O=C(NC(Cc1cc(=O)[nH]c2ccccc12)C(=O)O)c1ccc(Cl)cc1", "note": "(stereo not drawn) [rebamipide, reference compound]", "values": [
      {"measurement": "gastric mucosal cytotoxicity by H. pylori infection", "setting": "[1]", "value": "significantly reduced"},
      {"measurement": "hemorrhagic gastric mucosal lesions after pretreatment", "setting": "[2]", "value": "hemorrhagic lesions are observed"},
      {"measurement": "ethanol-induced gastric mucosal cytotoxicity", "setting": "[3]", "value": "significantly reduced"}
    ]}
  ]
}
